Assays:
Test in all cases: relative viability (nuclei count vs DMSO), 5 days (fraction); higher = more cells survive
[1] = compound: CN1CCN(CC1)C2=CC(=C(C=C2)NC3=NC=C4C(=N3)N(C5=CC=CC=C5C(=O)N4C)C)OC [XMD8-85] + Cc1nc(NC(=O)N2CCC[C@H]2C(N)=O)sc1-c1ccnc(C(C)(C)C(F)(F)F)c1 [Alpelisib] (partner 2 µM)
Procedure, shortened: (§1)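 For relative viability, nuclei counts in treated wells were divided by those in vehicle wells. Lung cancer cell lines had been pin-tool dosed in 1536-well plates the day after seeding and cultured for 5 days, then fixed and stained in one step (final 0.05% Triton X-100, 1% formaldehyde, 1 ug/ml Hoechst) and imaged at 4×. Doses were one drug alone or a fixed anchor-drug dose plus five library-drug doses (not always all listed) in √10 steps, and values are duplicate-plate medians.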

[2] = compound: CN1CCN(CC1)C2=CC(=C(C=C2)NC3=NC=C4C(=N3)N(C5=CC=CC=C5C(=O)N4C)C)OC [XMD8-85] + Cc1nc(Nc2ncc(C(=O)Nc3c(C)cccc3Cl)s2)cc(N2CCN(CCO)CC2)n1 [Dasatinib] (partner 0.075 µM)
Procedure, shortened: as §1

[3] = compound: O=C(O)C(Cc1ccccc1[N+](=O)[O-])=NNc1nc(-c2ccc(Cl)c(Cl)c2)cs1 (mixture of isomers) [4EGI-1] + N=C(N)NC(=N)NCCc1ccccc1 [Phenformin] (partner 250 µM)
Procedure, shortened: as §1

[4] = compound: O=C(O)C(Cc1ccccc1[N+](=O)[O-])=NNc1nc(-c2ccc(Cl)c(Cl)c2)cs1 (mixture of isomers) [4EGI-1] + COc1cc2c(Oc3ccc(NC(=O)C4(C(=O)Nc5ccc(F)cc5)CC4)cc3F)ccnc2cc1OCCCN1CCOCC1 [Foretinib] (partner 0.25 µM)
Procedure, shortened: as §1

| Cell Line | relative viability ([1]; first compound 0.08 µM) | relative viability ([1]; first compound 0.253 µM) | relative viability ([1]; first compound 0.8 µM) | relative viability ([1]; first compound 2.53 µM) | relative viability ([1]; first compound 8 µM) | relative viability ([2]; first compound 0.08 µM) | relative viability ([2]; first compound 0.253 µM) | relative viability ([2]; first compound 0.8 µM) | relative viability ([2]; first compound 2.53 µM) | relative viability ([2]; first compound 8 µM) | relative viability ([3]; first compound 0.5 µM) | relative viability ([3]; first compound 1.581 µM) | relative viability ([3]; first compound 5 µM) | relative viability ([3]; first compound 15.81 µM) | relative viability ([3]; first compound 50 µM) | relative viability ([4]; first compound 0.5 µM) | relative viability ([4]; first compound 1.581 µM) | relative viability ([4]; first compound 5 µM) | relative viability ([4]; first compound 15.81 µM) | relative viability ([4]; first compound 50 µM) |
| --- | --- | --- | --- | --- | --- | --- | --- | --- | --- | --- | --- | --- | --- | --- | --- | --- | --- | --- | --- | --- |
| NCI-H727 | 0.759 | 0.541 | 0.546 | 0.534 | 0.304 | 0.295 | 0.416 | 0.442 | 0.344 | 0.353 | 0.648 | 0.518 | 0.511 | 0.572 | 0.332 | 1.07 | 1.07 | 0.767 | 1.19 | 0.324 |
| LCLC-103H | 0.88 | 1.04 | 0.933 | 0.961 | 0.728 | 0.425 | 0.476 | 0.575 | 0.505 | 0.379 | 0.337 | 0.349 | 0.34 | 0.354 | 0.287 | 0.791 | 0.675 | 0.764 | 0.733 | 0.367 |
| ABC-1 | 1.03 | 1.15 | 1.37 | 1.01 |  | 0.515 |  | 0.503 | 0.673 | 0.408 | 0.239 | 0.234 | 0.215 | 0.209 | 0.171 | 1.21 | 0.896 | 1.17 | 0.587 | 0.271 |
| NCI-H3122 | 0.814 | 0.71 | 0.954 | 0.93 | 0.766 | 0.933 |  | 0.984 | 0.861 | 0.794 | 0.372 |  | 0.378 | 0.33 | 0.169 | 0.897 | 0.897 | 0.927 | 0.986 | 0.684 |
| NCI-H1703 | 0.305 | 0.433 | 0.337 | 0.401 | 0.265 |  |  |  |  |  |  |  |  |  |  | 0.38 | 0.373 | 0.348 | 0.349 | 0.326 |
| HOP-62 | 0.85 | 0.967 | 1.04 | 0.908 |  | 0.644 | 0.594 | 0.661 |  | 0.433 | 0.677 | 0.446 | 0.73 | 0.667 | 0.537 | 1.17 | 0.716 | 1.1 | 1.17 | 0.656 |
| NCI-H2405 | 0.812 | 0.818 | 0.833 | 0.539 | 0.568 | 0.206 | 0.206 | 0.221 | 0.198 | 0.177 | 0.419 | 0.338 | 0.421 | 0.409 | 0.409 | 1.06 | 1 | 1.13 | 1.13 | 1.02 |
| LXF-289 | 1.02 | 0.964 | 1.01 | 1.08 | 0.939 | 0.214 | 0.23 | 0.208 | 0.243 | 0.2 | 0.535 | 0.514 | 0.513 | 0.485 | 0.291 | 0.992 | 0.944 | 1 | 0.943 | 0.771 |
| NCI-H1355 | 0.844 | 0.89 | 0.807 | 0.731 |  | 0.671 | 0.753 | 0.653 | 0.819 |  | 0.469 | 0.439 | 0.45 | 0.413 | 0.33 | 0.932 | 0.87 | 0.962 | 0.851 | 0.738 |
